# Source: patent US20170298055A1, “sGC STIMULATORS” (IRONWOOD PHARMACEUTICALS, INC., priority 2014, published 2017)
# Biological target: T1, human recombinant soluble guanylate cyclase enzyme α1β1 (Homo sapiens, UniProt Q02108+Q02153)
# T1 construct: purchased Enzo Life Sciences ALX-201-177
# T1 sequence (Q02153 1-619): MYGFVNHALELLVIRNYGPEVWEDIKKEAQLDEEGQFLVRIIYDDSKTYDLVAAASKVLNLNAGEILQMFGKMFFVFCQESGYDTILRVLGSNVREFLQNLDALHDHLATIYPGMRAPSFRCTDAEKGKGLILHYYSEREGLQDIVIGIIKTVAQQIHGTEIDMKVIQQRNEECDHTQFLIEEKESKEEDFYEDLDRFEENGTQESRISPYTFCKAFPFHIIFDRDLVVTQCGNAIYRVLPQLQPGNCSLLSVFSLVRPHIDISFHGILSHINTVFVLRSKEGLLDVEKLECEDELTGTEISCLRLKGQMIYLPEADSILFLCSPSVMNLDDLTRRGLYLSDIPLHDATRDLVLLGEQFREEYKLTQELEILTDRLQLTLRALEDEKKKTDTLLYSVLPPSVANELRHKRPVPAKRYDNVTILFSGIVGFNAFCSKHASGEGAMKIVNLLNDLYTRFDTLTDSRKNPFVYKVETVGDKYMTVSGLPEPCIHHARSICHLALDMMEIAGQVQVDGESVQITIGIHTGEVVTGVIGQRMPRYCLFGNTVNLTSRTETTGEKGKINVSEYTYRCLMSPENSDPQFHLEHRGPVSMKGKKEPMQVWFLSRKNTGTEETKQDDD
# T1 sequence (Q02108 1-690): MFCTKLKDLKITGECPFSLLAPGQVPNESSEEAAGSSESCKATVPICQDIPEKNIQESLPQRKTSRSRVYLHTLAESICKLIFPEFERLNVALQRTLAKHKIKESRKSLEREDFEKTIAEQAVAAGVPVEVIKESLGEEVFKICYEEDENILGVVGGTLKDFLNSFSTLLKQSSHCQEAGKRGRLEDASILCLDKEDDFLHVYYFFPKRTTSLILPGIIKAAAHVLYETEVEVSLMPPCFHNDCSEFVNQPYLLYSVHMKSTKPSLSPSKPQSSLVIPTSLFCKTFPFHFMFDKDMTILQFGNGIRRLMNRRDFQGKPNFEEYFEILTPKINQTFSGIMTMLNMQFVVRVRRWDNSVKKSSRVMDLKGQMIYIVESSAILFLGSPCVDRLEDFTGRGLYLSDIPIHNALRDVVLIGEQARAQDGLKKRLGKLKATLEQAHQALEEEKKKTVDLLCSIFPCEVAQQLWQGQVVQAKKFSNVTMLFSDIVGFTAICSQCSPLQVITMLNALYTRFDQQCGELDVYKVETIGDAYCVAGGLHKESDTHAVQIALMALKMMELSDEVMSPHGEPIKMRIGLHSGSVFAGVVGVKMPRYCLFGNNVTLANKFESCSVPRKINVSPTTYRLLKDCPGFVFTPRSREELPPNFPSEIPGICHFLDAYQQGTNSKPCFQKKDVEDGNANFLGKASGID
# Assay: Purified human recombinant sGC α1β1 enzyme assay with DETA-NONOate, cGMP HTRF (Example 5)
# Type: biochemical
# Conditions: 30 uM DETA NONOate, 50% of maximal response of 30 uM Compound Y, read-out: sGC_Enz_HTRF_a1b1 EC50/IC50 Abs (Norm) (nM) Binned
# Method: Purified human recombinant soluble guanylate cyclase enzyme α1β1 (h sGC) obtained from Enzo Life Sciences (P/N: ALX-201-177) was used to evaluate the activity of test compounds. The assay reactions contained 0.1 M Tris (pH 8.0), 0.5 mg/mL BSA, 2 mM DTT, 4 mM MgCl2, 30 uM DETA NONOate (Enzo Life Science P/N: ALX-430-014), and 12.5 ng/ml human soluble guanylate cyclase enzyme. […] Guanosine 5′-triphosphate (Sigma-Aldrich P/N: G8877) was added to a final concentration of 300 μM and enzyme reactions were incubated (100 μL, 384-well plate format) at 37° C. for 20 minutes. The controls contained 3% DMSO (low control), or 30 uM of Compound Y (high control). After the 20 minute incubation, the reaction was stopped with the addition of 100 μL of ice cold 20% acetic acid.
# cGMP concentrations in all samples were determined using the cGMP HTRF (Cisbio P/N: 62GM2PEC) assay per manufacturer's instructions. A cGMP standard curve was fit using a 4-parameter fit (log(inhibitor) vs. response variable slope) using GraphPad Prism Software v.6. Samples were diluted appropriately to ensure that values fell within the linear range of the standard curve.
# Data were fit using a 4-parameter fit (log(agonist) vs. response variable slope) using GraphPad Prism Software v.6.
row,EC50 [nM],Structure (SMILES)
1,1000 to 5000,OCCOc1nc(-c2cc(-c3ccon3)n(Cc3ccccc3F)n2)ncc1F [Compound I-1]
2,1000 to 5000,CN(C)CCOc1nc(-c2cc(-c3ccon3)n(Cc3ccccc3F)n2)ncc1F [Compound I-2]
